Results taken from patent US12343404B2, “Ligand-targeted cell conjugate (LTCC)-based anti-tumor immune cell” (priority 2020, dated 2025).

Test system: NK92-MI cells
Experiment: Influence of azido sugar on NK cell activity (CCK8, OD450)
Assay type: cell-based
Settings: final concentration 50 μM; 24 hours and 48 hours; vs 0.1% DMSO control
Method: This embodiment describes validation of influences of the added non-natural sugars on cell activities. The specific method is as follows: non-natural sugars were absorbed by cells; the cells were cultured for a period of time; then, OD450 was determined using a cell counting kit 8 (CCK8) (Beyotime), and a difference in cell activities of a group added with sugars and a group without sugars was analyzed.
The specific process is as follows: 1×10^5 pieces of NK cells were laid in a 96-pore plates; 0.1% DMSO was added into a control group, while Ac4ManNAz with a final concentration of 50 μM (the mount of the DMSO was equivalent to 0.1%) was added into an experimental group; then, the cells were cultured in an incubator at 37° C., and subsequently added with the CCK8 after 24 hours and 48 hours respectively; and after 2-hour incubation, OD450 was detected using a microplate reader.

## CC(=O)OC[C@H]1OC(OC(C)=O)[C@@H](NC(=O)CN=[N+]=[N-])[C@@H](OC(C)=O)[C@@H]1OC(C)=O (stereo partly shown) [Ac4ManNAz, N-azidoacetylmannosamine-tetraacylated]
  influence on cell activities (OD450, CCK8): not toxic to cells, but slightly promoted growth
